# Results: patent publication US20060100188A1, “Treatment methods” (priority 2004, published 2006)
# Experiments:
# [1] = system: A375 human melanoma xenograft tumors; experiment: A375 human melanoma xenograft tumor model; format: in vivo, nude mice; settings: 15-day cycle
# Method: (§1) In brief, female athymic nude mice or female SCID mice (4-6 week old) from Charles River Laboratories were maintained in a VAF-barrier facility. Animal procedures were performed in accordance with the rules set forth in the N.I.H. guide for the care and use of laboratory animals.
# (§2) DAOY human glioma cells (5×10^6), LOX human melanoma cells (5×10^5), and A375 human melanoma cells (5×10^6) were inoculated subcutaneously in the right flank of the animal (LOX in SCID mice; DAOY and A375 in nude mice). To facilitate in vivo growth, Matrigel was mixed with DAOY and A375 cells (50%) before inoculation. When tumor volumes were approximately 100 mm^3, animals were randomized and grouped (n=10). Tumor volumes and body weight were measured twice weekly using Labcat™ computer application (Innovative Programing Associates, N.J.). Tumor volumes were calculated by the formula (W×L×H)×π×⅙.
# (§3) TMZ was administered by intraperitoneal injections with 20% HPβCD (containing 1% DMSO) as vehicle. Mice bearing xenograft tumors of DAOY human glioma cells, a high MGMT level cell line, were treated with one of three different dosing schedules. In a 15-day cycle, under same total dose levels, mice received one of the following TMZ treatments: (i) day 1 through day 15; (ii) day 1 through day 5; or (iii) intermittently on day 1, 4, 7, 10, and 13. For all dosing schedules, three different dose levels (180, 270, and 405 mg/kg total) were used.
# as §3, with “Mice” for “TMZ was administered by intraperitoneal injections with 20% HPβCD (containing 1% DMSO) as vehicle. Mice”, “A375” for “DAOY”, “melanoma” for “glioma”, “with” for “with one of”, “Similar to the schedules used for the DAOY model, in” for “In”
# [2] = system: LOX human melanoma cells (low MGMT level); experiment: Colony formation assay, LOX cells; format: cell-based
# Method: (§4) As detailed below, DAOY human glioma cells (high MGMT level), A375 human melanoma cells (high MGMT level), and LOX human melanoma cells (low MGMT level) in in vitro colony formation assays were treated with different dosing schedules of TMZ. In brief, sub-confluent plates containing cells (DAOY, A375, or LOX) were trypsinized, then rinsed and suspended in appropriate culture medium before seeding in 6-well plates. Cells were incubated for 18-24 hours at 37° C. to allow cells to attach. Graded concentrations of TMZ or equivalent volumes of diluents were added in triplicate. Each pulse of TMZ lasted for 24 hours. For example, cells receiving continuous daily dosing of TMZ were treated with TMZ-containing medium every 24 hours throughout the cycle. Following the last pulse of TMZ in a cycle, TMZ-containing medium was removed and replaced with fresh medium without TMZ for the rest of the incubation period. Resulting colonies were stained with Crystal Violet solution and quantified using ImagePro plus software (Empire Imaging Systems, Inc. Asbury, N.J.).
# In the 4-day cycle, illustrated in FIG. 3A, TMZ was administered according to one of two different dosing schedules: (i) continuous daily dosing (Day 1-4); or (ii) single pulse dosing (Day 1); where the total amount of TMZ administered was 0, 16, 31, 62, or 124 μg.
# In the 8-day cycle, illustrated in FIG. 3B, TMZ was administered according to one of three different dosing schedules: (i) continuous daily dosing (Day 1-8); (ii) dosing for 2 consecutive days (Day 1-2); or (ii) intermittent dosing for 2 days (Day 1, Day 5); where the total amount of TMZ administered was 0, 31, 62, 124, or 248 μg.
# [3] = system: LOX human melanoma xenograft tumors; experiment: LOX human melanoma xenograft tumor model; format: in vivo, SCID mice; settings: for % Inhibition compared to tumor treated with vehicle: 12-day cycle; for TGI: SCID mice, intermediate dose 72 mg/kg total
# Method: as §1, §2, §3
# Mice bearing xenograft tumors of LOX human melanoma cells, a low MGMT level cell line, were treated with TMZ using two different schedules. The same total dose was administered evenly divided over the course of either: (i) 4 or (ii) 12 days. TMZ was administered through intraperitoneal injection using cumulative total dose levels of 36, 72 or 144 mg/kg.
# The efficacy of TMZ was schedule dependent, with greater efficacy seen when dosing for 4 consecutive days.
# [4] = system: DAOY human glioma cells (high MGMT level); experiment: Colony formation assay, DAOY cells; format: cell-based; settings: 4-day cycle
# Method: as §4
# [5] = system: A375 human melanoma cells (high MGMT level); experiment: Colony formation assay, A375 cells; format: cell-based; settings: 4-day cycle
# Method: as §4
# [6] = system: DAOY human glioma xenograft tumors; experiment: DAOY human glioma xenograft tumor model; format: in vivo, nude mice; settings: two 15-day cycles
# Method: as §1, §2, §3
# FIG. 5A illustrates the mean tumor growth curves of DAOY human glioma xenograft tumors following TMZ treatment for two consecutive 15-day cycles of continuous daily dosing (Day 1-15 (first cycle), Day 16-30 (second cycle)); where the total dose of TMZ administered was 0, 360, 540, or 810 mg per kg (mpk). FIG. 5B illustrates the mean tumor growth curves of DAOY human glioma xenograft tumors following TMZ treatment for two consecutive 15-day cycles of dosing for 5 consecutive days (Day 1-5 (first cycle); Day 16-20 (second cycle)); where the total dose of TMZ administered was 0, 360, 540, or 810 mpk. FIG. 5C illustrates mean tumor growth curves of DAOY human glioma xenograft tumors following TMZ treatment for two consecutive 15-day cycles of intermittent dosing for 5 days (Day 1, 4, 7, 10, 13 (first cycle); Day 16, 19, 22, 25, 28 (second cycle)); where the total dose of TMZ administered was 0, 360, 540, or 810 mpk.
compound,measurement,setting,value
"Cn1nnc2c(C(N)=O)ncn2c1=O [TMZ, 3,4-dihydro-3-methyl-4-oxoimidazo[5,1-d]-as-tetrazine-8-carboxamide]",% Inhibition compared to tumor treated with vehicle,"[1]; continuous daily dosing Day 1-15, 12 mpk per pulse, total 180 mpk, dose intensity 1, i.p.",34%
same,% Inhibition compared to tumor treated with vehicle,"[1]; dosing for 5 consecutive days Day 1-5, 54 mpk per pulse, total 270 mpk, dose intensity 1.5, i.p.",29%
same,% Inhibition compared to tumor treated with vehicle,"[1]; dosing for 5 consecutive days Day 1-5, 81 mpk per pulse, total 405 mpk, dose intensity 2.25, i.p.",68%
same,% Inhibition compared to tumor treated with vehicle,"[1]; intermittent dosing Day 1, 4, 7, 10, 13, 54 mpk per pulse, total 270 mpk, dose intensity 1.5, i.p.",58%
same,% Inhibition compared to tumor treated with vehicle,"[1]; intermittent dosing Day 1, 4, 7, 10, 13, 81 mpk per pulse, total 405 mpk, dose intensity 2.25, i.p.",73%
same,% Inhibition compared to untreated cells,"[2]; 4-day cycle, continuous daily dosing Day 1-4 (¼ total TMZ/day), total TMZ 16 μg",7%
same,% Inhibition compared to untreated cells,"[2]; 4-day cycle, single pulse dosing Day 1, total TMZ 16 μg",66%
same,% Inhibition compared to untreated cells,"[2]; 4-day cycle, single pulse dosing Day 1, total TMZ 31 μg",87%
same,% Inhibition compared to untreated cells,"[2]; 4-day cycle, single pulse dosing Day 1, total TMZ 62 μg",84%
same,% Inhibition compared to untreated cells,"[2]; 8-day cycle, continuous daily dosing Day 1-8 (⅛ total TMZ/day), total TMZ 31 μg",−5%
same,% Inhibition compared to untreated cells,"[2]; 8-day cycle, dosing for 2 consecutive days Day 1, Day 2 (½ total TMZ/day), total TMZ 31 μg",45%
same,% Inhibition compared to untreated cells,"[2]; 8-day cycle, dosing for 2 consecutive days Day 1, Day 2 (½ total TMZ/day), total TMZ 62 μg",92%
same,% Inhibition compared to untreated cells,"[2]; 8-day cycle, dosing for 2 consecutive days Day 1, Day 2 (½ total TMZ/day), total TMZ 124 μg",98%
same,% Inhibition compared to untreated cells,"[2]; 8-day cycle, intermittent dosing for 2 days Day 1, Day 5 (½ total TMZ/day), total TMZ 31 μg",78%
same,% Inhibition compared to untreated cells,"[2]; 8-day cycle, intermittent dosing for 2 days Day 1, Day 5 (½ total TMZ/day), total TMZ 62 μg",98%
same,% Inhibition compared to untreated cells,"[2]; 8-day cycle, intermittent dosing for 2 days Day 1, Day 5 (½ total TMZ/day), total TMZ 124 μg",99%
same,% Inhibition compared to tumor treated with vehicle,"[3]; continuous daily dosing Day 1-12, 3 mpk per pulse, total 36 mpk, dose intensity 1, i.p.",37%
same,% Inhibition compared to tumor treated with vehicle,"[3]; dosing for 4 consecutive days Day 1-4, 18 mpk per pulse, total 72 mpk, dose intensity 2, i.p.",88%
same,% Inhibition compared to tumor treated with vehicle,"[3]; dosing for 4 consecutive days Day 1-4, 36 mpk per pulse, total 144 mpk, dose intensity 4, i.p.",94%
same,TGI,[3]; 4-day treatment schedule,88%
same,TGI,[3]; 12-day schedule,50%
same,% Inhibition compared to untreated cells,"[4]; continuous daily dosing Day 1-4 (¼ total TMZ/day), total TMZ 93 μg",−8%
same,% Inhibition compared to untreated cells,"[4]; single pulse dosing Day 1, total TMZ 93 μg",−37%
same,% Inhibition compared to untreated cells,"[4]; single pulse dosing Day 1, total TMZ 186 μg",20%
same,% Inhibition compared to untreated cells,"[4]; single pulse dosing Day 1, total TMZ 373 μg",75%
same,% Inhibition compared to untreated cells,"[5]; continuous daily dosing Day 1-4 (¼ total TMZ/day), total TMZ 62 μg",17.4%
same,% Inhibition compared to untreated cells,"[5]; single pulse dosing Day 1, total TMZ 62 μg",76%
same,% Inhibition compared to untreated cells,"[5]; single pulse dosing Day 1, total TMZ 124 μg",88%
same,% Inhibition compared to untreated cells,"[5]; single pulse dosing Day 1, total TMZ 249 μg",96%
same,% Inhibition compared to tumor treated with vehicle,"[6]; continuous dosing Day 1-30, 12 mpk per pulse, total 360 mpk, dose intensity 1, i.p.",66%
same,% Inhibition compared to tumor treated with vehicle,"[6]; dosing for 5 consecutive days Day 1-5, Day 16-20, 54 mpk per pulse, total 540 mpk, dose intensity 1.5, i.p.",118%
same,% Inhibition compared to tumor treated with vehicle,"[6]; dosing for 5 consecutive days Day 1-5, Day 16-20, 81 mpk per pulse, total 810 mpk, dose intensity 2.25, i.p.",124%
same,% Inhibition compared to tumor treated with vehicle,"[6]; intermittent dosing Day 1, 4, 7, 10, 13, 16, 19, 22, 25, 28, 54 mpk per pulse, total 540 mpk, dose intensity 1.5, i.p.",85%
same,% Inhibition compared to tumor treated with vehicle,"[6]; intermittent dosing Day 1, 4, 7, 10, 13, 16, 19, 22, 25, 28, 81 mpk per pulse, total 810 mpk, dose intensity 2.25, i.p.",117%
